# ChEMBL document CHEMBL3046568, “Synthesis, antimicrobial and DNA cleavage studies of some 4-aryloxymethylcoumarins obtained by reaction of 4-bromomethylcoumarins with bidentate nucleophiles” (2012)
# Activity calls are given as the source filed them. The calls are words filed in the database; no cut-off is given here.
# How the values were obtained:
# Enterococcus faecalis = test: Antibacterial activity against Enterococcus faecalis MTCC 3382 after 24 hr by disk diffusion method; type: functional; settings: for MIC: Enterococcus faecalis, MTCC 3382, 24 h
# Aspergillus niger [1] = test: Induction of Aspergillus niger DNA cleavage at 50 ug after 2 hr by agarose gel electrophoresis
# Escherichia coli [2] = test: Induction of Escherichia coli MTCC 1089 DNA cleavage at 50 ug after 2 hr by agarose gel electrophoresis
# Staphylococcus aureus [3] = test: Induction of Staphylococcus aureus MTCC 3160 DNA cleavage at 50 ug after 2 hr by agarose gel electrophoresis
# Fusarium oxysporum = test: Antifungal activity against Fusarium oxysporum after 3 to 4 days by serial dilution method; type: functional; settings: for MIC: Fusarium oxysporum
# Mucor fuscus = test: Antifungal activity against Mucor fuscus after 3 to 4 days by serial dilution method; type: functional; settings: for MIC: Mucor fuscus
# Penicillium chrysogenum = test: Antifungal activity against Penicillium chrysogenum after 3 to 4 days by serial dilution method; type: functional; settings: for MIC: Penicillium chrysogenum
# Aspergillus niger [4] = test: Antifungal activity against Aspergillus niger after 3 to 4 days by serial dilution method; type: functional; settings: for MIC: Aspergillus niger
# Candida albicans = test: Antifungal activity against Candida albicans after 3 to 4 days by serial dilution method; type: functional; settings: for MIC: Candida albicans
# Aspergillus fumigatus = test: Antifungal activity against Aspergillus fumigatus after 3 to 4 days by serial dilution method; type: functional; settings: for MIC: Aspergillus fumigatus
# Escherichia coli [5] = test: Antibacterial activity against Escherichia coli MTCC 1089 after 24 hr by disk diffusion method; type: functional; settings: for MIC: Escherichia coli, MTCC 1089, 24 h
# Klebsiella pneumoniae = test: Antibacterial activity against Klebsiella pneumoniae MTCC 3384 after 24 hr by disk diffusion method; type: functional; settings: for MIC: Klebsiella pneumoniae, MTCC 3384, 24 h
# Pseudomonas aeruginosa = test: Antibacterial activity against Pseudomonas aeruginosa MTCC 1034 after 24 hr by disk diffusion method; type: functional; settings: for MIC: Pseudomonas aeruginosa, MTCC 1034, 24 h
# Bacillus subtilis = test: Antibacterial activity against Bacillus subtilis MTCC 297 after 24 hr by disk diffusion method; type: functional; settings: for MIC: Bacillus subtilis, MTCC 297, 24 h
# Staphylococcus aureus [6] = test: Antibacterial activity against Staphylococcus aureus MTCC 3160 after 24 hr by disk diffusion method; type: functional; settings: for MIC: Staphylococcus aureus, MTCC 3160, 24 h
MIC (Enterococcus faecalis),Activity (Aspergillus niger [1]),Activity (Escherichia coli [2]),Activity (Staphylococcus aureus [3]),MIC (Fusarium oxysporum),MIC (Mucor fuscus),MIC (Penicillium chrysogenum),MIC (Aspergillus niger [4]),MIC (Candida albicans),MIC (Aspergillus fumigatus),MIC (Escherichia coli [5]),SMILES,inhibition zone (IZ) (Enterococcus faecalis),inhibition zone (IZ) (Fusarium oxysporum),inhibition zone (IZ) (Mucor fuscus),inhibition zone (IZ) (Penicillium chrysogenum),inhibition zone (IZ) (Aspergillus niger [4]),inhibition zone (IZ) (Candida albicans),inhibition zone (IZ) (Aspergillus fumigatus),inhibition zone (IZ) (Escherichia coli [5]),inhibition zone (IZ) (Klebsiella pneumoniae),other results
12.5 µg/mL,inactive,inactive,inactive,50 µg/mL,25 µg/mL,12.5 µg/mL,6.25 µg/mL,25 µg/mL,12.5 µg/mL,50 µg/mL,Cc1ccc2c(COc3cccc(O)c3)cc(=O)oc2c1,16 mm,9 mm,14 mm,18 mm,19 mm,9 mm,16 mm,9 mm,13 mm,MIC (Klebsiella pneumoniae): 12.5 µg/mL; inhibition zone (IZ) (Pseudomonas aeruginosa): 16 mm; MIC (Pseudomonas aeruginosa): 12.5 µg/mL; inhibition zone (IZ) (Bacillus subtilis): 14 mm; MIC (Bacillus subtilis): 12.5 µg/mL; inhibition zone (IZ) (Staphylococcus aureus [6]): 14 mm; MIC (Staphylococcus aureus [6]): 12.5 µg/mL
6.25 µg/mL,Active,Active,Active,25 µg/mL,12.5 µg/mL,6.25 µg/mL,6.25 µg/mL,6.25 µg/mL,12.5 µg/mL,12.5 µg/mL,O=c1cc(COc2cccc(O)c2)c2cc(Br)ccc2o1,18 mm,13 mm,18 mm,19 mm,21 mm,17 mm,18 mm,15 mm,19 mm,MIC (Klebsiella pneumoniae): 6.25 µg/mL; inhibition zone (IZ) (Pseudomonas aeruginosa): 23 mm; MIC (Pseudomonas aeruginosa): 6.25 µg/mL; inhibition zone (IZ) (Bacillus subtilis): 17 mm; MIC (Bacillus subtilis): 6.25 µg/mL; inhibition zone (IZ) (Staphylococcus aureus [6]): 19 mm; MIC (Staphylococcus aureus [6]): 6.25 µg/mL
12.5 µg/mL,inactive,inactive,inactive,25 µg/mL,25 µg/mL,25 µg/mL,12.5 µg/mL,12.5 µg/mL,12.5 µg/mL,25 µg/mL,O=c1cc(COc2cccc(O)c2)c2c(ccc3ccccc32)o1,14 mm,12 mm,13 mm,16 mm,17 mm,14 mm,15 mm,12 mm,15 mm,MIC (Klebsiella pneumoniae): 12.5 µg/mL; inhibition zone (IZ) (Pseudomonas aeruginosa): 18 mm; MIC (Pseudomonas aeruginosa): 12.5 µg/mL; inhibition zone (IZ) (Bacillus subtilis): 12 mm; MIC (Bacillus subtilis): 25 µg/mL; inhibition zone (IZ) (Staphylococcus aureus [6]): 11 mm; MIC (Staphylococcus aureus [6]): 25 µg/mL
12.5 µg/mL,inactive,inactive,inactive,25 µg/mL,25 µg/mL,12.5 µg/mL,12.5 µg/mL,12.5 µg/mL,12.5 µg/mL,12.5 µg/mL,CCN(CC)c1cccc(OCc2cc(=O)oc3ccc4ccccc4c23)c1,14 mm,14 mm,14 mm,17 mm,17 mm,13 mm,14 mm,14 mm,15 mm,MIC (Klebsiella pneumoniae): 12.5 µg/mL; inhibition zone (IZ) (Pseudomonas aeruginosa): 17 mm; MIC (Pseudomonas aeruginosa): 12.5 µg/mL; inhibition zone (IZ) (Bacillus subtilis): 11 mm; MIC (Bacillus subtilis): 25 µg/mL; inhibition zone (IZ) (Staphylococcus aureus [6]): 13 mm; MIC (Staphylococcus aureus [6]): 12.5 µg/mL
